± gives the expanded uncertainty stated by the source.
Assay: mean ionic activity coefficient (dimensionless); mn = molality of the nth substance listed, in mol/kg
Conditions: 298.15 K, 101 kPa, Liquid

[Br-].[Cs+] [cesium bromide] + O
Conditions	mean ionic activity coefficient
m1 = 0.1	0.75 ± 0.001
m1 = 0.2	0.689 ± 0.001
m1 = 0.3	0.652 ± 0.001
m1 = 0.4	0.625 ± 0.001
m1 = 0.5	0.604 ± 0.001
m1 = 0.6	0.587 ± 0.001
m1 = 0.7	0.573 ± 0.001
m1 = 0.8	0.561 ± 0.001
m1 = 0.9	0.551 ± 0.001
m1 = 1	0.542 ± 0.001
m1 = 1.2	0.526 ± 0.001
m1 = 1.4	0.514 ± 0.001
m1 = 1.6	0.504 ± 0.001
m1 = 1.8	0.495 ± 0.001
m1 = 2	0.488 ± 0.001
m1 = 2.5	0.475 ± 0.001
m1 = 3	0.466 ± 0.001
m1 = 3.5	0.461 ± 0.001
m1 = 4	0.46 ± 0.001
m1 = 4.5	0.46 ± 0.001
m1 = 5	0.463 ± 0.001
